Results reported in patent US11958842B2, “Substituted phenazines and methods of treating cancer and bacterial diseases” (Adjutec Pharma AS, priority 2016, dated 2024).
Values after ≈ are worked out from the molar mass of the structure shown. Where two headings read alike, the source gives them in different places. Marks after values point to notes of the source that are not given here.

What was measured:
IPC-81 rat AML cells = assay: Anti-AML activity, WST-1 viability (Example 72); type: cell-based
Outline: (§1)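 Rat IPC-81 cells in DMEM with 10% horse serum and Molm13 cells in RPMI with 10% FBS, seeded at 150 000 cells/ml with compound dilution series. After 22 h exposure, WST-1 added for a further 2 h; absorbance read at 450 nm (620 nm reference) as viability.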

Molm13 cells = assay: Anti-AML activity, WST-1 viability (Example 72); type: cell-based; conditions: Homo sapiens, Molm 13 cells, WST-1
Outline: as §1

hepG2 = assay: Cytotoxicity (Example 73, Table 2); type: cell-based; conditions: Homo sapiens, read-out: EC50 (μM) hepG2
[1] = all solvents; background statement; cited from earlier work
[2] = Parallel artificial membrane permeability assay (PAMPA); conditions: PAMPA, 50 μM in PBS, room temperature, five hours
Protocol: The Corning Gentest™ pre-Coated parallel artificial membrane permeability assay PAMPA Plate System was from Cording Discovery Labware (Bedford, USA). The compounds were tested in room temperature at 50 μM using PBS as buffer. A total of 300 μl of the compound solution was added to each well of the donor plate, and 200 μl of PBS was added to the receiver filter plate. After incubation for five hours, 50 μl of the donor or acceptor well were injected into a reversed phase HPLC column (Kromasil 100-5 C18 150-4.6 mm, Akzo Nobel, Sweden) connected to a Merck-Hitachi LaChrome HPLC-system (VWR, WestChester, USA) with a L-7455 diode array detector. Mobile phase A was 0.05% aqueous TFA, and mobile phase B was acetonitrile. The flow rate was 1.6 ml/min and compounds eluted between 1 and 4.5 minutes was eluted during a 6.5 min gradient from 90:10% mobile phase A:B to 0:100% mobile phase A:B. The ratio of the compound concentrations in the donor and acceptor compartment was calculated after integration of the peaks at 285 nm. Peff was calculated as described in [Bennion B J, Be N A, McNerney M W, Lao V, Carlson E M, Valdez C A, et al. Predicting a Drug's Membrane Permeability: A Computational Model Validated With in Vitro Permeability Assay Data. The journal of physical chemistry B. 2017; 121(20):5228-37.]. Membrane permeability were classified by the range defined by Bennion et al., allowing for us to divide the compounds into four groups, compounds with high permeability (LogPeff>−5.33), intermediate permeability (LogPeff>−5.66 and <−5.33), low permeability (LogPeff>−6.14 and <−5.66) impermeable (LogPeff<−6.14).

[3] = tested on: human acute myeloid leukemia cell line MOLM-13; assay: Cytotoxicity, WST-1 and nuclear morphology (Example 73); type: cell-based
Outline: (§2)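 MOLM-13 (RPMI/FBS), NRK and H9c2 (DMEM/10% FBS) cells under 2% or 20% O2 at 37° C were exposed to analogues for 24 h (≤1% DMSO). Viability was read by WST-1, and cell death by Hoechst 33342 nuclear morphology; EC50 came from four-parameter regression.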

[4] = tested on: rat cardiomyoblast (H9c2) cells; assay: as above; type: cell-based; conditions: H9c2, 19% O2, 24 hours of incubation, read-out: EC50 (μM) H9c2 19% O2
Outline: as §2

[5] = tested on: normal rat kidney epithelial (NRK) cells; assay: as above; type: cell-based; conditions: Rattus norvegicus
Outline: as §2

[6] = tested on: methicillin-resistant S. aureus MRSA A4-37; assay: Microbroth dilution MIC; type: cell-based; conditions: compound alone
Protocol: (§3) Day 1: • Plate bacterial strain(s) on appropriate media: • Gram-negative bacteria with ESBLs or carbapenemases: green agar plates with 100 mg/L ampicillin • Gram-negative bacteria without β-lactamases: green agar plates • Gram-positive bacteria (Staphylococci and Enterococci): blood agar plates • Incubate o.n. at 37° C.
(§4) Prepare the Bacterial Inoculum: • Prepare a 0.5 McFarland suspension of bacteria in 0.85% NaCl. (Should be used within 15 min of preparation). • Dilute the 0.5 McFarland suspension 1:100 into MH broth.
(§5) Check the inoculum by diluting the prepared bacterial suspension 1:100 (10 μl bacterial suspension+990 μl 0.85% NaCl). Plate 10 μl of the dilution on MH agar plates (×2). Incubate o.n. at 37° C., count the colonies and calculate the final CFU/ml inoculum in the plate by multiplying the average number of colonies with 10000 and divide by 2. The final inoculum should be between 3-7×10^5 CFU/ml. • Add 50 μl of the prepared bacterial suspension to each well in the microtiter plate except negative growth control.
(§6) Preparation of Compounds/Antibiotics • Calculate the desired concentration-range and volume of the compounds/antibiotics in the assay. For antibiotics this will depend on the MIC to meropenem of the bacterial strains to be tested. Dilute the stock solution in MH broth. Make subsequent 2-fold dilutions in MH broth of the desired concentrations if a concentration range is to be tested (remember the extra dilution factor in the assay plate). Always include extra volume for pipetting. Take into consideration stock solutions that are made in buffers that have an effect on bacterial growth (e.g. DMSO).
(§7) This experimental design was used for the results in Tables 4 and 5 below. In Table 4, inhibitor concentration dependency on the MIC of meropenem was studied.

[7] = tested on: vancomycin-resistant E. faecium vanA A1-22; assay: Microbroth dilution MIC; type: cell-based; conditions: compound alone
Protocol: as §3, §4, §5, §6, §7

K. pneumoniae/KPC-2 = assay: Microbroth dilution MIC; type: cell-based; conditions: Klebsiella pneumoniae; S6 K. pneumoniae/KPC-2; substance alone
Protocol: as §3, §4, §5, §6, §7

K. pneumoniae/NDM-1 = assay: Microbroth dilution MIC; type: cell-based; conditions: Klebsiella pneumoniae; S4 K. pneumoniae/NDM-1; substance alone
Protocol: as §3, §4, §5, §6, §7

E. coli/OXA-48 = assay: Microbroth dilution MIC; type: cell-based; conditions: Escherichia coli, read-out: MIC alone
Protocol: as §3, §4, §5, §6, §7

A.baumannii/OXA-23 = assay: Microbroth dilution MIC; type: cell-based; conditions: Acinetobacter baumannii; S7 A.baumannii/OXA-23; substance alone
Protocol: as §3, §4, §5, §6, §7

P. aeruginosa/VIM-2 = assay: Microbroth dilution MIC; type: cell-based; conditions: Pseudomonas aeruginosa, read-out: MIC alone
Protocol: as §3, §4, §5, §6, §7

K. pneumoniae (17A2) = assay: Microbroth dilution MIC; type: cell-based; conditions: Klebsiella pneumoniae; S2 K. pneumoniae (17A2), lacking metallo-β-lactamase; substance alone
Protocol: as §3, §4, §5, §6, §7

P. aeruginosa (16H5) = assay: Microbroth dilution MIC; type: cell-based; conditions: Pseudomonas aeruginosa; S1 P. aeruginosa (16H5), lacking metallo-β-lactamase; substance alone
Protocol: as §3, §4, §5, §6, §7

[8] = 2% O2, 24 h of incubation, read-out: Molm 13 IC50 2% O2
[9] = 20% O2, 24 h of incubation, read-out: Molm 13 IC50 20% O2
[10] = Homo sapiens, MOLM-13, 2% O2, 24 hours of incubation, read-out: EC50 (μM) MOLM-13 2% O2
[11] = Homo sapiens, MOLM-13, 19% O2, 24 hours of incubation, read-out: EC50 (μM) MOLM-13 19% O2
[12] = 2% O2, 24 hours of incubation, read-out: EC50 (μM) NRK 2% O2
[13] = 19% O2, 24 hours of incubation, read-out: EC50 (μM) NRK 19% O2

Row | SMILES | IC50 (Molm13 cells; [8]) | IC50 (Molm13 cells; [9]) | EC50 (hepG2; hepG2, 24 hours of incubation) | EC50 [3, 10] | EC50 [3, 11] | EC50 ([4]; Rattus norvegicus) | EC50 [5, 12] | EC50 [5, 13] | MIC A4-37 S. aureus MRSA [6] | MIC A1-22 E. faecium vanA [7] | further results
1 | [O-][n+]1c2cccc(O)c2[n+]([O-])c2cccc(O)c21 [Example 1c, 1,6-dihydroxyphenazine 5,10-dioxide, reference compound] | 270 nM | 300 nM | > 250 µM | 0.79 ± 0.1 µM | 2 ± 0.07 µM | > 50 µM | > 50 µM | > 50 µM |  |  | IC50 (IPC-81 rat AML cells; IPC81, 24 h, read-out: IPC-81 IC50 2% O2): 510 nM; IC50 (IPC-81 rat AML cells; IPC81, 24 h, read-out: IPC-81 IC50 20% O2): 1300 nM; solubility [1]: practically insoluble in all solvents; LogPeff [2]: −5.46*
2 | CC(C)(C)OC(=O)COc1cccc2c1[n+]([O-])c1cccc(O)c1[n+]2[O-] [Example 5b, 1-(2-(tert-butoxy)-2-oxoethoxy)-6-hydroxyphenazine 5,10-dioxide] | 1650 nM | 1770 nM |  | 2.4 ± 0.16 µM | 2.9 ± 0.34 µM | 42 ± 5.8 µM | 53 µM | 53 ± 1.5 µM | < 0.5 µg/mL | 8 µg/mL (≈ 22.3 µM) | LogPeff [2]: −5.33
3 | COc1cccc2c1[n+]([O-])c1cccc(OC(C)=O)c1[n+]2[O-] [Example 5e, 1-Acetoxy-6-methoxyphenazine 5,10-dioxide] | 1450 nM | 1500 nM |  |  |  |  |  |  |  |  | IC50 (IPC-81 rat AML cells; IPC81, IPC-81 cells, 2% O2, 24 h of incubation, WST-1, read-out: IPC-81 IC50 2% O2): 1700 nM; IC50 (IPC-81 rat AML cells; IPC81, IPC-81 cells, 20% O2, 24 h of incubation, WST-1, read-out: IPC-81 IC50 20% O2): 1800 nM
4 | CCOC(=O)COc1cccc2c1[n+]([O-])c1ccccc1[n+]2[O-] [Example 6a, 1-(2-ethoxy-2-oxoethoxy)phenazine 5,10-dioxide] |  | 110 nM | 75 µM | 1.7 ± 0.29 µM | 1.5 ± 0.14 µM | 20 ± 2.9 µM | 25 ± 0.2 µM | 26 ± 0.8 µM | < 0.5 µg/mL | 4 µg/mL (≈ 12.7 µM) | MIC (K. pneumoniae/KPC-2): 9.7 µg/mL (≈ 30.9 µM); MIC (K. pneumoniae/NDM-1): 19.6 µg/mL (≈ 62.4 µM); MIC (E. coli/OXA-48): 2.5 µg/mL (≈ 7.95 µM); MIC (A.baumannii/OXA-23): 5 µg/mL (≈ 15.9 µM); MIC (P. aeruginosa/VIM-2): 39.3 µg/mL (≈ 125 µM)
5 | CCOC(=O)COc1cccc2c1[n+]([O-])c1cc(Br)c(Br)cc1[n+]2[O-] [Example 6d, 7,8-dibromo-1-(2-ethoxy-2-oxoethoxy)phenazine 5,10-dioxide] |  |  | 65 µM | 1.6 ± 0.09 µM | 2.4 ± 0.03 µM | 3.3 ± 0.5 µM | 9.7 ± 2.4 µM | 10 ± 0.7 µM | 16 µg/mL (≈ 33.9 µM) | 8 µg/mL (≈ 16.9 µM) | 
6 | COc1cccc2c1[n+]([O-])c1cccc(OC(=O)N3CCCC3)c1[n+]2[O-] [Example 8l, 1-methoxy-6-((pyrrolidine-1-carbonyl)oxy)phenazine 5,10-dioxide] |  |  |  |  |  |  |  |  | < 4 µg/mL | 63 µg/mL (≈ 177 µM) | EC50 (hepG2; HepG2, 24 h): 110 µM; EC50 ([3]; MOLM-13, 2% O2, 24 hours of incubation, read-out: EC50 (μM) MOLM-13 2% O2): 1.8 ± 0.17 µM; EC50 ([3]; MOLM-13, 19% O2, 24 hours of incubation, read-out: EC50 (μM) MOLM-13 19% O2): 2 ± 0.11 µM; EC50 [4]: 35 ± 3.3 µM; EC50 ([5]; 24 h, read-out: EC50 (μM) NRK 2% O2, NRK, 2% O2, 24 hours of incubation): 35 ± 1.5 µM; EC50 ([5]; 24 h, read-out: EC50 (μM) NRK 19% O2, NRK, 19% O2, 24 hours of incubation): 32 ± 2.5 µM
7 | C[C@@H](O)[C@H]1C(=O)N2C(C(=O)O)=C(S[C@@H]3CN[C@H](C(=O)N(C)C)C3)[C@H](C)[C@H]12 [MEM, meropenem, reference compound] |  |  |  |  |  |  |  |  |  |  | MIC (K. pneumoniae/KPC-2): > 64 µg/mL; MIC (K. pneumoniae/NDM-1): 64 µg/mL (≈ 167 µM); MIC (E. coli/OXA-48): 1 µg/mL (≈ 2.61 µM); MIC (K. pneumoniae (17A2)): 8 µg/mL (≈ 20.9 µM); MIC (A.baumannii/OXA-23): > 64 µg/mL; MIC (P. aeruginosa/VIM-2; S3 P. aeruginosa/VIM-2, substance alone): 32 µg/mL (≈ 83.4 µM); MIC (P. aeruginosa (16H5)): > 64 µg/mL
